Experimental data published in patent publication US8754257B2, “Pharmaceutical-grade ferric organic compounds, uses thereof and methods of making same” (GloboAsia, LLC, priority 2003, dated 2014).
Entries after “also recorded” stand apart in the source; their conditions may differ.

Key:
[1] = system: patients with End Stage Renal Disease (ESRD); details: cited from earlier work
[2] = system: patients with kidney disease; details: patients with kidney disease receiving doses of ferric citrate; cited from earlier work
[3] = Intrinsic dissolution rate of ferric citrate; assay type: physicochemical; details: for Intrinsic Dissolution Rates: 37° C., solutions of pH 8
Description: The intrinsic dissolution rate is defined as the dissolution rate of pure substances under the condition of constant surface area. […] The measured intrinsic dissolution rate is dependent on these solid-state properties and is typically determined by exposing a constant surface area of a material to an appropriate dissolution medium while maintaining constant temperature, stirring rate, and pH.

[4] = BET active surface area measurement; assay type: physicochemical; details: for BET Active Surface Area: Table 2, one value per pair of samples -1/-2
Description: The analysis of active surface area is based on BET theory which describes the phenomenon of mass and energy interaction and phase changes during as adsorption onto solid surfaces and in pore spaces. In BET active surface area measurement, the volume of a monolayer of gas is determined which allows the surface area of the sample to be determined using the area occupied by a single layer of adsorbed gas molecule.

patients = assay: Clinical study of pharmaceutical-grade ferric citrate in patients in vivo; design: species or system human
Description: Ferric citrate is supplied in 500 mg capsules, whereas the placebo will be provided in identical-looking capsules (indistinguishable from those containing the active drug); the placebo capsules will contain sorbitol and colorant to match the powder color of the active capsules. The placebo capsule shells will be identical to the active capsule shells.
An non-limiting example of a dosing regimen is provided below. This is not meant to limit the invention as to how an effective amount of ferric citrate is selected, or the form in which it is provided or the frequency of administering the composition per day. The following merely illustrates how ferric citrate and placebo may be administered; e.g., as 500 mg capsules of identical appearance. All patients may receive (in a blinded fashion) 4 capsules with each of three meals, on a daily basis, for 28 days. Patients will be instructed to take the study medication within 10 minutes of finishing their meals (breakfast, lunch, and dinner).
• 4 placebo capsules, with breakfast. • 4 placebo capsules, with lunch. • 4 placebo capsules with dinner Ferric Citrate 2 g Per Day Arm of the Study • 1 ferric citrate capsule and 3 placebo capsules with breakfast • 1 ferric citrate capsule and 3 placebo capsules with lunch • 2 ferric citrate capsules and 2 placebo capsules with dinner Ferric Citrate 4 g Per Day Arm • 2 ferric citrate capsules and 2 placebo capsules with breakfast • 3 ferric citrate capsule and 1 placebo capsule with lunch • 3 ferric citrate capsules and 1 placebo capsule with dinner Ferric Citrate 6 g Per Day Arm • 4 ferric citrate capsules with breakfast • 4 ferric citrate capsules with lunch • 4 ferric citrate capsules with dinner B. Clinical Schedule and Assessments Duration of Study Treatment
Each patient's participation in the trial lasts for up to 8 weeks: the screening period (approximately 1-2 weeks), a 1-2 week washout, and 4 weeks of treatment with study medication.
The following procedures will be performed at the first screening visit: • 1. Medical history, including concomitant medications. • 2. Demographic data • 3. Physical examination, including height, weight, and vital signs. • 4. Dietary interview, using 24 hour recall method, to assess dietary intake of calcium and phosphorous, three times during screening period, to include one dialysis day, one non-dialysis day, and one weekend day. Note: Dietary interview may be also performed, in part or in whole, during the washout period. • 5. […]

For ferric citrate, the GI symptoms ([1]; 3 g daily) is listed as “mild, hut tolerable GI symptoms”, the “change in serum P04” value ([1]; 3 g daily) is listed as “significant decrease in serum P04” and the “efficacy in reducing serum P04 compared with calcium carbonate (3 g daily)” value [1] is listed as “not as effective as calcium carbonate”. For the same substance, the “calcium deposits on the eye” value [2] was “reversal of calcium deposits on the eye”.
In the case of ferric citrate [PAN031203A], the “Intrinsic Dissolution Rates” value [3] is reported as 3.82 mg/cm2/min.
For ferric citrate [PAN031203B], the “Intrinsic Dissolution Rates” value [3] was 4.00 mg/cm2/min.
With ferric citrate [PAN031203C] the “Intrinsic Dissolution Rates” value [3] was 2.68 mg/cm2/min.
With ferric citrate [PAN031203D] the “Intrinsic Dissolution Rates” value [3] was 2.95 mg/cm2/min.
For ferric citrate [PAN031203E], the “Intrinsic Dissolution Rates” value [3] was 3.13 mg/cm2/min.
For “ferric citrate [RFS-12-1, reference compound]”, the “BET Active Surface Area” value [4] was 0.61.
With ferric citrate [STM-134-1] the “BET Active Surface Area” value [4] was 16.17.
For ferric citrate [STM-134], the “Intrinsic Dissolution Rates” value [3] was 1.88 mg/cm2/min.
In the case of ferric citrate [STM-182-1], the “BET Active Surface Area” value [4] is reported as 19.85.
In the case of “ferric citrate [ferric citrate of the present invention]”, the “BET active surface area relative to commercially available ferric citrate” value [4] is reported as “at least 16 times”, the “adverse side effects compared with placebo” value (patients; FIG. 12) is reported as “not statistically different from chose associated with the placebo” and the “adverse side effects / safety profile compared with chemical grade ferric citrate” value (patients; oral capsules, FIG. 12, listed as pharmaceutical grade ferric citrate) is reported as “less adverse clinical effects; also recorded: significantly more desirable safety profile”. For the same substance, the “adverse side effects / safety profile compared with chemical grade ferric citrate” value (patients; oral capsules, FIG. 12, listed as pharmaceutical-grade ferric citrate) was “less adverse side effects than chemical grade ferric citrate”, the “efficacy compared with chemical grade ferric citrate” value (patients; oral capsules, FIG. 13, listed as pharmaceutical-grade ferric citrate) was “approximately equal so that of chemical grade ferric citrate” and the “dissolution rate compared with commercially available ferric citrate” value ([3]; experiment simulating the alkaline condition in the small intestine) was “better dissolution rate than the commercially available ferric citrate”. The “intrinsic dissolution rate relative to commercially available ferric citrate” value ([3]; pH 8.0) was 3.08 times.
